# Where two headings read alike, the source gives them in different places.
# Legend:
# [1] = Solubility in solvents; format: physicochemical; settings: read-out: Löslichkeit
# Source text: Zum Vergleich : Die Löslichkeit von BCM beträgt in Wasser 6 ppm und in Butanol 600 ppm.
# [2] = test system: holzverblauende Pilze; assay: Münden strip method (Mündener Streifenmethode) on wood against blue-stain fungi; settings: in usual wood preservative formulation (alkyd resin, Testbenzin 60); 25 GT product of Beispiel 1 in 1000 GT, or 0,25 % BCM as comparison
# Source text: 25 GT eines Produktes gemäß Beispiel 1 werden zu 975 GT einer üblichen Holzschutzmittelformulierung gegeben, die zusammengesetzt ist aus 140 GT eines handelsüblichen Alkyldharzes, 4 GT Zinknaphthenat als Trockner, 4 GT eines handelsüblichen Hautverhütungsmittels, 30 GT Butyldiglykol und 797 GT Testbenzin 60.
# Die Wirksamkeit der so biozid ausgerüsteten Holzschutzmittelformulierung gegen holzverblauende Pilze wird nach der Mündener Streifenmethode [H. Butin, Farbe und Lack, 71 (1965), 373] geprüft. Es ergibt sich eine bewuchsfreie Eindringtiefe von 3 bis 4 mm.
# Zum Vergleich wird die oben angegebene übliche Holzschutzmittelformulierung mit 0,25 % Benzimidazolcarbaminsäuremethylester versetzt und unter gleichen Bedingungen geprüft. Es werden nur Eindringtiefen von 0,5 mm festgestellt.
smiles,measurement,setting,value
"COC(=O)Nc1nc2ccccc2[nH]1 [II, Benzimidazolcarbaminsäuremethylester]",solubility,"[1]; organic solvent or mixture, in Butanol",600 µg/mL
same,solubility,"[1]; water, in Wasser",6 µg/mL
same,bewuchsfreie Eindringtiefe,[2],"0,5 mm"

# Source: patent publication EP0014443B1, “Dilutable alkyl-benzimidazolecarbamate formulation, process for its preparation and its use as biocide” (RIEDEL-DE HAEN AKTIENGESELLSCHAFT, priority 1979, dated 1980)
